Literature values as cited in patent publication US20060292216A1, “Enteric delivery of (-)-hydroxycitric acid” (priority 2003, published 2006).

Experiments:
[1] = system: experimental animals fed a high-sugar diet; details: single large oral dose or two divided oral doses totaling one fourth of it
humans = details: conditions that elevate de novo lipogenesis
test subjects = details: chronic administration; resting and exercising conditions
[2] = system: human hepatoma cell line Hep G2
[3] = system: middle-aged rats fed a 30% fat diet

Structure (SMILES) | reduction in food consumption [1] | fat synthesis and energy expenditure (humans) | respiratory exchange ratio (test subjects) | cholesterol biosynthesis, of the control value, by incorporation from 3H2O [2] | incorporation of [1,5-14C]citrate into fatty acids and cholesterol ([2]; 0.5 mM or higher, 2.5 h and 18 h incubations) | protein and fat as percentage of body weight [3]
O=C(O)CC(O)(C(=O)O)C(O)C(=O)O (single isomer, unassigned; (-)) [HCA, (−)-hydroxycitric acid] | ≥ 10% | reduced fat synthesis and increased energy expenditure | significantly lower | 27 % of the control value | strongly inhibited | 
O=C([O-])CC(O)(C(=O)[O-])C(O)C(=O)[O-].[K+].[K+].[K+] (stereo not drawn) [potassium HCA] |  |  |  |  |  | increased protein as a percentage of body weight while reducing fat as a percentage of body weight
